Drawing on US20240360178A1, “MACROCYCLIC IMMUNOMODULATORS” (Bristol-Myers Squibb Company, priority 2021, published 2024), this text covers IC50 for 15 molecules.

Broadly, the IC50 is the concentration that gives 50% inhibition.

Positions of bridges follow the written chain, without caps; N, C: chain ends. Non-standard residues stand in square brackets, D forms with d. Residues, ends and D or L forms follow the SMILES beside them. ξ: configuration not given here. *: point of attachment. Phe(4-COOH) = N[C@@H](Cc1ccc(C(=O)O)cc1)C(=O)O; Bip = N[C@@H](Cc1ccc(-c2ccccc2)cc1)C(=O)O; Phe(3-Me) = Cc1cccc(C[C@H](N)C(=O)O)c1; NMeY = CN[C@@H](Cc1ccc(O)cc1)C(=O)O; Val(3-OH) = CC(C)(O)[C@H](N)C(=O)O; NMeF = CN[C@@H](Cc1ccccc1)C(=O)O; ξW = NC(Cc1c[nH]c2ccccc12)C(=O)O; 4Pal = N[C@@H](Cc1ccncc1)C(=O)O; Cha = N[C@@H](CC1CCCCC1)C(=O)O; Cit = NC(=O)NCCC[C@H](N)C(=O)O; ξR = N=C(N)NCCCC(N)C(=O)O; Carboxymethyl = O=C(O)C*; NMeA = CN[C@@H](C)C(=O)O; Nle = CCCC[C@H](N)C(=O)O; Orn = NCCC[C@H](N)C(=O)O; Dab = NCC[C@H](N)C(=O)O; Dap = NC[C@H](N)C(=O)O; ξV = CC(C)C(N)C(=O)O; Sar = CNCC(=O)O

The assay addresses T1, human PD-1 (Jurkat-PD-1 cells) / PE-labeled human PD-L1-Ig (Homo sapiens, UniProt Q15116).
T1 construct: expressed in transfected cells; host or cells: Jurkat cell line over-expressing human PD-1
The experiment in a line: Jurkat-PD-1 Cell Binding High-Content Screening Assay (CBA); Jurkat hPD1-PDL1 assay. Conditions: Jurkat cell line over-expressing human PD-1; PE-labeled PD-L1-Ig 20 nM final; compound incubated 2 hours at 37° C.; read-out: Jurkat HPD1-PDL1 IC50. Put shortly:
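Jurkat-hPD-1 cells; cpd 2 h, 37° C; then PE-PD-L1-Ig 20 nM final in DMEM/10% FCS; high-content imaging read-out.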

T1 sequence (Q15116 25-288): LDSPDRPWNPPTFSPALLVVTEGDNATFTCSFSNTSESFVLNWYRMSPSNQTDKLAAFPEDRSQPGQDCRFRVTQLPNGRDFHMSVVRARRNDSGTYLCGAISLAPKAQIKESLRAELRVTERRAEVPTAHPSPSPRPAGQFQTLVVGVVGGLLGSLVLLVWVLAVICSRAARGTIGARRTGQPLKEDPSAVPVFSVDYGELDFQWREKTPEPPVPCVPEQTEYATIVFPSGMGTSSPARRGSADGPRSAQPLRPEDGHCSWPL

On to `CC(C)C[C@@H]1NC(=O)[C@H](Cc2c[nH]c3ccccc23)NC(=O)[C@H](CC(=O)O)NC(=O)[C@H](Cc2ccc(O)cc2)NC(=O)[C@H](Cc2ccccc2)NC(=O)CSC[C@@H](C(=O)N[C@@H](C)C(N)=O)NC(=O)[C@H]([C@@H](C)O)NC(=O)[C@H](C(C)C)NC(=O)[C@H](CC(C)C)NC(=O)[C@H](CC(N)=O)NC(=O)[C@H]2CCCN2C(=O)[C@H](CCN)NC(=O)[C@H](C(C)C)NC(=O)[C@H](Cc2ccc(-c3ccccc3)cc2)NC1=O` [Example 1412] ({CH2CO}-FYDWL[Bip]V[Dab][dP]NLVTCA-NH2; thioether N-14), for which the IC50 was 480 nM.
For `CC(C)C1NC(=O)[C@H](Cc2c[nH]c3ccccc23)NC(=O)[C@H](CC(=O)O)NC(=O)[C@H](Cc2ccncc2)NC(=O)[C@H](Cc2ccc(OCC(=O)O)cc2)NC(=O)CSC[C@@H](C(=O)N[C@@H](C)C(N)=O)NC(=O)[C@H]([C@@H](C)O)NC(=O)[C@H](C(C)C)NC(=O)[C@H](CC2CCCCC2)NC(=O)[C@H](CCN)NC(=O)[C@H](Cc2ccccc2)N(C)C(=O)[C@H](CCCN)NC(=O)[C@H](CCC(=O)O)NC(=O)[C@H](Cc2ccc(-c3ccccc3)cc2)NC1=O` (stereo partly drawn) [Example 1440] ({CH2CO}-Y(Carboxymethyl)[4Pal]DW[ξV][Bip]E[Orn][NMeF][Dab][Cha]VTCA-NH2; thioether N-14), the IC50 came out at 70 nM.
With `CC(C)C[C@@H]1NC(=O)[C@H](CCCNC(=N)N)NC(=O)[C@H](Cc2ccccc2)N(C)C(=O)[C@H](C)N(C)C(=O)[C@H](CCCNC(=N)N)NC(=O)[C@H](Cc2ccc(-c3ccccc3)cc2)NC(=O)[C@H](C(C)C)NC(=O)[C@H](Cc2c[nH]c3ccccc23)NC(=O)[C@H](CC(=O)O)NC(=O)[C@H](Cc2ccc(O)cc2)NC(=O)CNC(=O)CSC[C@@H](C(=O)NCC(N)=O)NC(=O)[C@H](CO)NC(=O)[C@H](C(C)C)NC1=O` [Example 1258] ({CH2CO}-GYDWV[Bip]R[NMeA][NMeF]RLVSCG-NH2; thioether N-14) the figure was 240 nM; with `Cc1cccc(C[C@@H]2NC(=O)[C@H](CC(=O)O)NC(=O)[C@H](Cc3ccc(OCC(=O)O)cc3)NC(=O)[C@H](Cc3ccncc3)NC(=O)CSC[C@@H](C(=O)N[C@@H](CCN)C(N)=O)NC(=O)[C@H](CO)NC(=O)[C@H](C(C)(C)O)NC(=O)[C@H](CC3CCCCC3)NC(=O)[C@H](CCN)NC(=O)[C@H]3CCCN3C(=O)[C@H](C)N(C)C(=O)[C@H](Cc3ccc(OCC(=O)O)cc3)NC(=O)[C@H](Cc3ccc(-c4ccccc4)cc3)NC(=O)[C@H](Cc3ccc(C(=O)O)cc3)NC2=O)c1` [Example 1178] ({CH2CO}-[4Pal]Y(Carboxymethyl)D[Phe(3-Me)][Phe(4-COOH)][Bip]Y(Carboxymethyl)[NMeA][dP][Dab][Cha][Val(3-OH)]SC[Dab]-NH2; thioether N-14), 70 nM; with `Cc1cccc(C[C@@H]2NC(=O)[C@H](CC(=O)O)NC(=O)[C@H](Cc3ccc(OCC(=O)O)cc3)NC(=O)[C@H](Cc3ccncc3)NC(=O)CSC[C@@H](C(=O)N[C@@H](CCN)C(N)=O)NC(=O)[C@H](CO)NC(=O)[C@H](C(C)(C)O)NC(=O)[C@H](CC3CCCCC3)NC(=O)[C@H](CCN)NC(=O)[C@H]3CCCN3C(=O)[C@H](C)N(C)C(=O)[C@H](CCCNC(N)=O)NC(=O)[C@H](Cc3ccc(-c4ccccc4)cc3)NC(=O)[C@H](Cc3ccc(OCC(=O)O)cc3)NC2=O)c1` [Example 1180] ({CH2CO}-[4Pal]Y(Carboxymethyl)D[Phe(3-Me)]Y(Carboxymethyl)[Bip][Cit][NMeA][dP][Dab][Cha][Val(3-OH)]SC[Dab]-NH2; thioether N-14), 20 nM.
With `CCCC[C@@H]1NC(=O)[C@H](C(C)C)NC(=O)[C@H](Cc2ccccc2)N(C)C(=O)[C@H](CC(=O)O)NC(=O)[C@H](CCC(=O)O)NC(=O)[C@H](Cc2ccc(-c3ccccc3)cc2)NC(=O)[C@H](C(C)C)NC(=O)[C@H](Cc2c[nH]c3ccccc23)NC(=O)[C@H](CC(=O)O)NC(=O)[C@H](Cc2ccc(O)cc2)NC(=O)[C@H](Cc2ccccc2)NC(=O)CSC[C@@H](C(=O)NCC(N)=O)NC(=O)[C@H](CCCNC(=N)N)NC(=O)[C@H](C(C)C)NC1=O` [Example 1191] ({CH2CO}-FYDWV[Bip]ED[NMeF]V[Nle]VRCG-NH2; thioether N-14) the figure was 690 nM.
For `COc1ccc(C[C@@H]2NC(=O)CSC[C@@H](C(=O)NCC(N)=O)NC(=O)[C@H](CO)NC(=O)[C@H](C(C)C)NC(=O)[C@H](CC(C)C)NC(=O)[C@H](CCCNC(=N)N)NC(=O)[C@H](Cc3ccccc3)N(C)C(=O)[C@H](C)N(C)C(=O)[C@H](CCCNC(=N)N)NC(=O)[C@H](Cc3ccc(-c4ccccc4)cc3)NC(=O)[C@H](C(C)C)NC(=O)[C@H](Cc3c[nH]c4ccccc34)NC(=O)[C@H](CC(=O)O)NC(=O)[C@H](Cc3ccc(O)cc3)NC2=O)cc1` [Example 1247] ({CH2CO}-Y(Me)YDWV[Bip]R[NMeA][NMeF]RLVSCG-NH2; thioether N-14), the IC50 was determined as 230 nM.
With `CC(C)C[C@@H]1NC(=O)[C@H](Cc2c[nH]c3ccccc23)NC(=O)[C@H](CC(=O)O)NC(=O)[C@H](Cc2ccc(O)cc2)NC(=O)[C@H](Cc2ccccc2)NC(=O)CSC[C@@H](C(=O)NCC(N)=O)NC(=O)[C@H]([C@@H](C)O)NC(=O)[C@H](C(C)C)NC(=O)[C@H](CC(C)C)NC(=O)[C@H](CC(N)=O)NC(=O)[C@H]2CCCN2C(=O)[C@H](CN)NC(=O)[C@H](C(C)C)NC(=O)[C@H](Cc2ccc(-c3ccccc3)cc2)NC1=O` [Example 1404] ({CH2CO}-FYDWL[Bip]V[Dap][dP]NLVTCG-NH2; thioether N-14) the figure was 390 nM; with `CC(C)C[C@@H]1NC(=O)[C@H](CC(N)=O)NC(=O)CN(C)C(=O)[C@H](C)N(C)C(=O)[C@H](C(C)C)NC(=O)[C@H](Cc2ccc(-c3ccccc3)cc2)NC(=O)[C@H](C(C)C)NC(=O)[C@H](Cc2c[nH]c3ccccc23)NC(=O)[C@H](CC(=O)O)NC(=O)[C@H](Cc2ccc(O)cc2)NC(=O)[C@H](Cc2ccccc2)NC(=O)CSC[C@@H](C(=O)N[C@@H](C)C(N)=O)NC(=O)[C@H](CO)NC(=O)[C@H](C(C)C)NC1=O` [Example 1149] ({CH2CO}-FYDWV[Bip]V[NMeA][Sar]NLVSCA-NH2; thioether N-14), 690 nM.
Consider `CCCC[C@@H]1NC(=O)[C@H](CC(N)=O)NC(=O)[C@H]2CCCN2C(=O)[C@H](C)N(C)C(=O)[C@H](C(C)C)NC(=O)[C@H](Cc2ccc(-c3ccccc3)cc2)NC(=O)[C@H](CC(C)C)NC(=O)[C@H](Cc2c[nH]c3ccccc23)NC(=O)[C@H](CC(=O)O)NC(=O)[C@H](Cc2ccc(O)cc2)NC(=O)[C@H](Cc2ccccc2)NC(=O)CSC[C@@H](C(=O)N[C@@H](C)C(N)=O)NC(=O)[C@H]([C@@H](C)O)NC(=O)[C@H](CCCNC(=N)N)NC1=O` [Example 1121] ({CH2CO}-FYDWL[Bip]V[NMeA][dP]N[Nle]RTCA-NH2; thioether N-14), for which the concentration for half-maximal inhibition (IC50) was 430 nM.
With `CC(C)C[C@@H]1NC(=O)[C@H](CC(N)=O)NC(=O)CN(C)C(=O)[C@H](CCCNC(=N)N)NC(=O)[C@H](C(C)C)NC(=O)[C@H](Cc2ccc(-c3ccccc3)cc2)NC(=O)[C@H](C(C)C)NC(=O)C(Cc2c[nH]c3ccccc23)NC(=O)[C@H](CC(=O)O)NC(=O)[C@H](Cc2ccc(O)cc2)NC(=O)[C@H](Cc2ccccc2)NC(=O)CSC[C@@H](C(=O)NCC(N)=O)NC(=O)[C@H](CO)NC(=O)[C@H](C(C)C)NC1=O` (stereo partly drawn) [Example 1229] ({CH2CO}-FYD[ξW]V[Bip]VR[Sar]NLVSCG-NH2; thioether N-14) the figure was 440 nM; with `CC(C)C[C@@H]1NC(=O)[C@H](Cc2c[nH]c3ccccc23)NC(=O)[C@H](CC(=O)O)NC(=O)[C@H](Cc2ccc(O)cc2)NC(=O)[C@H](Cc2ccccc2)NC(=O)CSC[C@@H](C(=O)N[C@@H](C)C(N)=O)NC(=O)[C@H](CO)NC(=O)[C@H](C(C)C)NC(=O)[C@H](CC(C)C)NC(=O)[C@H](CC(N)=O)NC(=O)CN(C)C(=O)[C@H](C)N(C)C(=O)[C@H](C(C)C)NC(=O)[C@H](Cc2ccc(-c3ccccc3)cc2)NC1=O` [Example 1252] ({CH2CO}-FYDWL[Bip]V[NMeA][Sar]NLVSCA-NH2; thioether N-14), 190 nM; with `CC(C)C1NC(=O)[C@H](Cc2c[nH]c3ccccc23)NC(=O)[C@H](CC(=O)O)NC(=O)[C@H](Cc2ccncc2)NC(=O)[C@H](CN)NC(=O)CSC[C@@H](C(=O)N[C@@H](C)C(N)=O)NC(=O)[C@H]([C@@H](C)O)NC(=O)[C@H](C(C)C)NC(=O)[C@H](CC2CCCCC2)NC(=O)[C@H](CCN)NC(=O)[C@H](Cc2ccc(O)cc2)N(C)C(=O)[C@H](CCCN)NC(=O)[C@H](CCC(=O)O)NC(=O)[C@H](Cc2ccc(-c3ccccc3)cc2)NC1=O` (stereo partly drawn) [Example 1451] ({CH2CO}-[Dap][4Pal]DW[ξV][Bip]E[Orn][NMeY][Dab][Cha]VTCA-NH2; thioether N-14), 520 nM.
Regarding `CC(C)C[C@@H]1NC(=O)[C@H](CCCNC(=N)N)NC(=O)[C@H](Cc2ccccc2)N(C)C(=O)[C@H](C)N(C)C(=O)[C@H](CCCN)NC(=O)[C@H](Cc2ccc(-c3ccccc3)cc2)NC(=O)[C@H](C(C)C)NC(=O)[C@H](Cc2c[nH]c3ccccc23)NC(=O)[C@H](CC(=O)O)NC(=O)[C@H](Cc2ccc(O)cc2)NC(=O)[C@H](CCC(N)=O)NC(=O)CSC[C@@H](C(=O)NCC(N)=O)NC(=O)[C@H](CO)NC(=O)[C@H](C(C)C)NC1=O` [Example 1294] ({CH2CO}-QYDWV[Bip][Orn][NMeA][NMeF]RLVSCG-NH2; thioether N-14), the half-maximal inhibitory concentration (IC50) is 140 nM.
With `CC(C)C[C@@H]1NC(=O)C(CCCNC(=N)N)NC(=O)[C@H](Cc2ccccc2)N(C)C(=O)[C@H](CCCCN)NC(=O)[C@H](CCCNC(=N)N)NC(=O)[C@H](Cc2ccc(-c3ccccc3)cc2)NC(=O)[C@H](C(C)C)NC(=O)[C@H](Cc2c[nH]c3ccccc23)NC(=O)[C@H](CC(=O)O)NC(=O)[C@H](Cc2ccc(O)cc2)NC(=O)[C@H](Cc2ccccc2)NC(=O)CSC[C@@H](C(=O)NCC(N)=O)NC(=O)[C@H](CO)NC(=O)[C@H](C(C)C)NC1=O` (stereo partly drawn) [Example 1216] ({CH2CO}-FYDWV[Bip]RK[NMeF][ξR]LVSCG-NH2; thioether N-14) the figure was 90 nM.
